pIC50: −log10 of the molar value. Starred links: 1 amine or outer side, 2 acyl side, 3 side chain; linkers in the order of their positions; H or OH if unused. Positions of bridges follow the written chain, without caps; N, C: chain ends. Non-standard residues stand in square brackets, D forms with d. Residues, ends and D or L forms follow the SMILES beside them. Groups on a side chain read outwards from the residue. *: point of attachment. Trp(1-CH2COOH) = N[C@@H](Cc1cn(CC(=O)O)c2ccccc12)C(=O)O; NH(2-Cl-4-NO2-phenyl) = O=[N+]([O-])c1ccc(N*)c(Cl)c1; X18 = O=[N+]([O-])c1ccc(NC(=S)*)c(Cl)c1; X65 = CC(C)(C)OC(=O)Nc1ccc(NC(=S)*)cc1; NH(1-naphthyl) = c1ccc2c(N*)cccc2c1; X49 = N#Cc1ccccc1NC(=N)c1ccccc1N*; Hyp = O=C(O)[C@@H]1C[C@@H](O)CN1; X43 = S=C(Nc1ccccc1Oc1ccccc1)*; X55 = COc1cc(NC(=S)*)cc(OC)c1; NMeNle = CCCC[C@H](NC)C(=O)O; X54 = S=C(Nc1cccc2ncccc12)*; X85 = S=C(Nc1c(Cl)cccc1Cl)*; NMeA = CN[C@@H](C)C(=O)O; Dab = NCC[C@H](N)C(=O)O; X45 = c1ccc2sc(N*)cc2c1; Dap = NC[C@H](N)C(=O)O; X46 = COc1ccc(Cl)cc1N*; CO = O=C([*:1])[*:2]
target: T1, PD-1/PD-L1 (Homo sapiens, UniProt Q9NZQ7); assay: PD-1/PD-L1 Homogenous Time-Resolved Fluorescence (HTRF) binding assay; conditions: not given
T1 construct: TVMV protease site linker (C); made in house; host or cells: HEK293T cells
Outline: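 HTRF read-out using europium cryptate anti-Ig (1 nM) and APC anti-His (20 nM) on extracellular-domain fusion proteins in dPBS/0.1% BSA/0.05% Tween-20. Inhibitor first incubated 15 min with 10 nM PD-L1-His, followed by 20 nM PD-1-Ig for another 15 min.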

T1 sequence (Q9NZQ7 18-239): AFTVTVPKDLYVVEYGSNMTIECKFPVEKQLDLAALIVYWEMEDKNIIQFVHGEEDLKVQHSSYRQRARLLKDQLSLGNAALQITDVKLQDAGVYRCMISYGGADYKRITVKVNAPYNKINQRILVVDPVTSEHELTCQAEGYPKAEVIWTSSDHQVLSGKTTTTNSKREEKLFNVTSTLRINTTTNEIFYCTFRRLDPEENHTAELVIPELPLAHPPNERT

Row | SMILES | pIC50
1 | CCCC[C@H]1C(=O)N(C)[C@@H](CCCC)C(=O)N[C@@H](CC(C)C)C(=O)N[C@H](C(=O)NCC(N)=O)CSCC(=O)N[C@@H](Cc2ccc(O)cc2)C(=O)N(C)[C@@H](C)C(=O)N[C@@H](CC(N)=O)C(=O)N2CCC[C@H]2C(=O)N[C@@H](CNC(=O)Nc2ccc([N+](=O)[O-])cc2Cl)C(=O)N[C@@H](CC(C)C)C(=O)N2C[C@H](O)C[C@H]2C(=O)N[C@@H](Cc2c[nH]c3ccccc23)C(=O)N[C@@H](CCNC(=O)Nc2ccc([N+](=O)[O-])cc2Cl)C(=O)N[C@@H](Cc2cn(CC(=O)O)c3ccccc23)C(=O)N1C [Example 1096] ({CH2CO}-Y[NMeA]NP[Dap]([CO-NH(2-Cl-4-NO2-phenyl)])L[Hyp]W[Dab]([CO-NH(2-Cl-4-NO2-phenyl)])[Trp(1-CH2COOH)][NMeNle][NMeNle]LCG-NH2; thioether N-14) | 8.16
2 | CCCC[C@H]1C(=O)N(C)[C@@H](CCCC)C(=O)N[C@@H](CC(C)C)C(=O)N[C@H](C(=O)NCC(N)=O)CSCC(=O)N[C@@H](Cc2ccc(O)cc2)C(=O)N(C)[C@@H](C)C(=O)N[C@@H](CC(N)=O)C(=O)N2CCC[C@H]2C(=O)N[C@@H](CNC(=S)Nc2ccc([N+](=O)[O-])cc2Cl)C(=O)N[C@@H](CC(C)C)C(=O)N2C[C@H](O)C[C@H]2C(=O)N[C@@H](Cc2c[nH]c3ccccc23)C(=O)N[C@@H](CCNC(=S)Nc2ccc([N+](=O)[O-])cc2Cl)C(=O)N[C@@H](Cc2cn(CC(=O)O)c3ccccc23)C(=O)N1C [Example 1103] ({CH2CO}-Y[NMeA]NP[Dap](X18)L[Hyp]W[Dab](X18)[Trp(1-CH2COOH)][NMeNle][NMeNle]LCG-NH2; thioether N-14) | 8.19
3 | CCCC[C@H]1C(=O)N(C)[C@@H](CCCC)C(=O)N[C@@H](CC(C)C)C(=O)N[C@H](C(=O)NCC(N)=O)CSCC(=O)N[C@@H](Cc2ccc(O)cc2)C(=O)N(C)[C@@H](C)C(=O)N[C@@H](CC(N)=O)C(=O)N2CCC[C@H]2C(=O)N[C@@H](CNC(=O)Nc2cccc3ccccc23)C(=O)N[C@@H](CC(C)C)C(=O)N2C[C@H](O)C[C@H]2C(=O)N[C@@H](Cc2c[nH]c3ccccc23)C(=O)N[C@@H](CCN)C(=O)N[C@@H](Cc2cn(CC(=O)O)c3ccccc23)C(=O)N1C [Example 3040] ({CH2CO}-Y[NMeA]NP[Dap]([CO-NH(1-naphthyl)])L[Hyp]W[Dab][Trp(1-CH2COOH)][NMeNle][NMeNle]LCG-NH2; thioether N-14) | 9.10

same assay, conditions: PD-L1-His 10 nM pre-incubated with inhibitor, PD-1-Ig 20 nM; read-out: HTRF IC50

Row | pIC50 | SMILES
4 | 9.22 | CCCC[C@H]1C(=O)N(C)[C@@H](CCCC)C(=O)N[C@@H](CC(C)C)C(=O)N[C@H](C(=O)NCC(N)=O)CSCC(=O)N[C@@H](Cc2ccc(O)cc2)C(=O)N(C)[C@@H](C)C(=O)N[C@@H](CC(N)=O)C(=O)N2CCC[C@H]2C(=O)N[C@@H](CNC(=S)Nc2c(Cl)cccc2Cl)C(=O)N[C@@H](CC(C)C)C(=O)N2C[C@H](O)C[C@H]2C(=O)N[C@@H](Cc2c[nH]c3ccccc23)C(=O)N[C@@H](CCNC(=S)Nc2c(Cl)cccc2Cl)C(=O)N[C@@H](Cc2cn(CC(=O)O)c3ccccc23)C(=O)N1C [Example 1039] ({CH2CO}-Y[NMeA]NP[Dap](X85)L[Hyp]W[Dab](X85)[Trp(1-CH2COOH)][NMeNle][NMeNle]LCG-NH2; thioether N-14)
5 | 8.25 | CCCC[C@H]1C(=O)N(C)[C@@H](CCCC)C(=O)N[C@@H](CC(C)C)C(=O)N[C@H](C(=O)NCC(N)=O)CSCC(=O)N[C@@H](Cc2ccc(O)cc2)C(=O)N(C)[C@@H](C)C(=O)N[C@@H](CC(N)=O)C(=O)N2CCC[C@H]2C(=O)N[C@@H](CN)C(=O)N[C@@H](CC(C)C)C(=O)N2C[C@H](O)C[C@H]2C(=O)N[C@@H](Cc2c[nH]c3ccccc23)C(=O)N[C@@H](CCNC(=O)Nc2cc3ccccc3s2)C(=O)N[C@@H](Cc2cn(CC(=O)O)c3ccccc23)C(=O)N1C [Example 3061] ({CH2CO}-Y[NMeA]NP[Dap]L[Hyp]W[Dab]([CO-X45])[Trp(1-CH2COOH)][NMeNle][NMeNle]LCG-NH2; thioether N-14)
6 | 8.36 | CCCC[C@H]1C(=O)N(C)[C@@H](CCCC)C(=O)N[C@@H](CC(C)C)C(=O)N[C@H](C(=O)NCC(N)=O)CSCC(=O)N[C@@H](Cc2ccc(O)cc2)C(=O)N(C)[C@@H](C)C(=O)N[C@@H](CC(N)=O)C(=O)N2CCC[C@H]2C(=O)N[C@@H](CNC(=O)Nc2cc(Cl)ccc2OC)C(=O)N[C@@H](CC(C)C)C(=O)N2C[C@H](O)C[C@H]2C(=O)N[C@@H](Cc2c[nH]c3ccccc23)C(=O)N[C@@H](CCNC(=O)Nc2cc(Cl)ccc2OC)C(=O)N[C@@H](Cc2cn(CC(=O)O)c3ccccc23)C(=O)N1C [Example 1123] ({CH2CO}-Y[NMeA]NP[Dap]([CO-X46])L[Hyp]W[Dab]([CO-X46])[Trp(1-CH2COOH)][NMeNle][NMeNle]LCG-NH2; thioether N-14)

The remaining lines, values behind:

Row | SMILES | pIC50
7 | CCCC[C@H]1C(=O)N(C)[C@@H](CCCC)C(=O)N[C@@H](CC(C)C)C(=O)N[C@H](C(=O)NCC(N)=O)CSCC(=O)N[C@@H](Cc2ccc(O)cc2)C(=O)N(C)[C@@H](C)C(=O)N[C@@H](CC(N)=O)C(=O)N2CCC[C@H]2C(=O)N[C@@H](CNC(=S)Nc2ccccc2Oc2ccccc2)C(=O)N[C@@H](CC(C)C)C(=O)N2C[C@H](O)C[C@H]2C(=O)N[C@@H](Cc2c[nH]c3ccccc23)C(=O)N[C@@H](CCNC(=S)Nc2ccccc2Oc2ccccc2)C(=O)N[C@@H](Cc2cn(CC(=O)O)c3ccccc23)C(=O)N1C [Example 1129] ({CH2CO}-Y[NMeA]NP[Dap](X43)L[Hyp]W[Dab](X43)[Trp(1-CH2COOH)][NMeNle][NMeNle]LCG-NH2; thioether N-14) | 8.03
8 | CCCC[C@H]1C(=O)N(C)[C@@H](CCCC)C(=O)N[C@@H](CC(C)C)C(=O)N[C@H](C(=O)NCC(N)=O)CSCC(=O)N[C@@H](Cc2ccc(O)cc2)C(=O)N(C)[C@@H](C)C(=O)N[C@@H](CC(N)=O)C(=O)N2CCC[C@H]2C(=O)N[C@@H](CNC(=S)Nc2ccc(NC(=O)OC(C)(C)C)cc2)C(=O)N[C@@H](CC(C)C)C(=O)N2C[C@H](O)C[C@H]2C(=O)N[C@@H](Cc2c[nH]c3ccccc23)C(=O)N[C@@H](CCN)C(=O)N[C@@H](Cc2cn(CC(=O)O)c3ccccc23)C(=O)N1C [Example 1040] ({CH2CO}-Y[NMeA]NP[Dap](X65)L[Hyp]W[Dab][Trp(1-CH2COOH)][NMeNle][NMeNle]LCG-NH2; thioether N-14) | 8.41
9 | CCCC[C@H]1C(=O)N(C)[C@@H](CCCC)C(=O)N[C@@H](CC(C)C)C(=O)N[C@H](C(=O)NCC(N)=O)CSCC(=O)N[C@@H](Cc2ccc(O)cc2)C(=O)N(C)[C@@H](C)C(=O)N[C@@H](CC(N)=O)C(=O)N2CCC[C@H]2C(=O)N[C@@H](CNC(=S)Nc2cccc3ncccc23)C(=O)N[C@@H](CC(C)C)C(=O)N2C[C@H](O)C[C@H]2C(=O)N[C@@H](Cc2c[nH]c3ccccc23)C(=O)N[C@@H](CCNC(=S)Nc2cccc3ncccc23)C(=O)N[C@@H](Cc2cn(CC(=O)O)c3ccccc23)C(=O)N1C [Example 3024] ({CH2CO}-Y[NMeA]NP[Dap](X54)L[Hyp]W[Dab](X54)[Trp(1-CH2COOH)][NMeNle][NMeNle]LCG-NH2; thioether N-14) | 8.49
10 | CCCC[C@H]1C(=O)N(C)[C@@H](CCCC)C(=O)N[C@@H](CC(C)C)C(=O)N[C@H](C(=O)NCC(N)=O)CSCC(=O)N[C@@H](Cc2ccc(O)cc2)C(=O)N(C)[C@@H](C)C(=O)N[C@@H](CC(N)=O)C(=O)N2CCC[C@H]2C(=O)N[C@@H](CNC(=O)Nc2ccccc2C(=N)Nc2ccccc2C#N)C(=O)N[C@@H](CC(C)C)C(=O)N2C[C@H](O)C[C@H]2C(=O)N[C@@H](Cc2c[nH]c3ccccc23)C(=O)N[C@@H](CCNC(=S)Nc2cc(OC)cc(OC)c2)C(=O)N[C@@H](Cc2cn(CC(=O)O)c3ccccc23)C(=O)N1C [Example 1088] ({CH2CO}-Y[NMeA]NP[Dap]([CO-X49])L[Hyp]W[Dab](X55)[Trp(1-CH2COOH)][NMeNle][NMeNle]LCG-NH2; thioether N-14) | 8.54

Source: patent publication US20220389061A1, “IMMUNOMODULATORS” (priority 2019, published 2022)
